How the values were obtained:
[1] = Cyclization of the anagrelide prodrug to anagrelide in aqueous medium as a function of pH; format: physicochemical; details: 37° C., after one hour
Description: The 2-amino-2H-quinazoline derivatives according to the invention can be cyclized to the anagrelide in aqueous medium as a function of the pH without addition of other adjuvants or boiling under reflux for hours. […] A cyclization of the compound with the general chemical formula I in strongly acidic pH range, as prevails, for example, in the stomach of mammals, has only been detected up to a certain small percentage.
(§1) For the cyclization, 0.3 mmol of the anagrelide prodrug methyl-(2-amino-5,6-dichloro-2H-quinazolin-3-yl) acetate hydrochloride (analysis: UV-Maxima 217,262 nm; MW 324.59; mp>250° C.), corresponding to the general formula I, wherein R1 indicates an alkyl group with one carbon atom, R2 and R3 each indicate a hydrogen atom, and R4 and R5 each indicate a chlorine atom, was added to 10 ml of an aqueous hydrochloric acid solution (0.1 M HCl), at 37° C. with slight stirring. After one hour, 9.6% of the prodrug was converted to anagrelide. [drawing 2]
as §1, with “(MW 324.59)” for “(analysis: UV-Maxima 217,262 nm; MW 324.59; mp>250° C.),”, “pH-neutral water,” for “an aqueous hydrochloric acid solution (0.1 M HCl),”, “58%” for “9.6%”, “anagrelide.” for “anagrelide. [drawing 2]”
as §1, with “hydrochloride” for “hydrochloride (analysis: UV-Maxima 217,262 nm; MW 324.59; mp>250° C.),”, “basic” for “hydrochloric acid”, “NaOH),” for “HCl),”, “100%” for “9.6%”, “anagrelide.” for “anagrelide. [drawing 2]”
(§2) For the cyclization, 0.3 mmol of the anagrelide prodrug ethyl-(2-amino-5,6-dichloro-2H-quinazolin-3-yl) acetate hydrochloride hemihydrate, corresponding to the general formula I, wherein R1 indicates an alkyl group with two carbon atoms, R2 and R3 each indicate a hydrogen atom, and R4 and R5 each indicate a chlorine atom, was added to 10 ml of an aqueous basic solution (15 g of sodium hydrogen carbonate in 1 liter of water), at 37° C. with slight stirring. This basic solution was selected because it corresponds to a common test system for simulation of the milieu of the intestinal juice (pH between 8 and 10). After one hour, 100% of the prodrug was converted to anagrelide.
as §2, with “methyl-(2-amino-5,6-dichloro-2H-quinazolin-3-yl)” for “ethyl-(2-amino-5,6-dichloro-2H-quinazolin-3-yl)”, “one” for “two”, “atom,” for “atoms,”
as §2, with “hydrobromide (analysis: UV maxima 204, 216, 262 nm; mp 291-293,” for “hydrochloride hemihydrate,”

blood platelets = details: mentioned in U.S. Pat. No. 4,146,718; cited from earlier work
thrombocytes = details: dose of 3 mg/day, after one week; cited from earlier work
[2] = anagrelide base; cited from earlier work
[3] = 0.3 mmol in 10 ml aqueous basic solution (15 g sodium hydrogen carbonate in 1 liter water; simulated intestinal juice, pH between 8 and 10)

**Q.** Which results are given for `COC(=O)CN1C=c2c(Cl)c(Cl)ccc2=NC1N.Cl` (stereo not drawn) [Methyl-(2-amino-5,6-dichloro-2H-quinazolin-3-yl) acetate hydrochloride]?
**A.** prodrug converted to anagrelide ([1]; 0.3 mmol in 10 ml aqueous basic solution (0.1 M NaOH)): 100%; prodrug converted to anagrelide ([1]; 0.3 mmol in 10 ml aqueous hydrochloric acid solution (0.1 M HCl)): 9.6%; prodrug converted to anagrelide ([1]; 0.3 mmol in 10 ml pH-neutral water): 58%

**Q.** For `Br.CCOC(=O)CN1Cc2c(ccc(Cl)c2Cl)N=C1N` [Ethyl-(2-amino-5,6-dichloro-2H-quinazolin-3-yl) acetate hydrobromide], which “prodrug converted to anagrelide” value [1, 3] is on record?
**A.** The value was 100%.

**Q.** And the “effect on blood platelets” value (blood platelets)?
**A.** Its value is “anti-aggregative effect on blood platelets”.

**Q.** For “Methyl-(2-amino-5,6-dichloro-2H-quinazolin-3-yl) acetate hydrochloride hemihydrate”, which “prodrug converted to anagrelide” value [1, 3] is on record?
**A.** The value was 100%.

**Q.** With `O=C1CN2Cc3c(ccc(Cl)c3Cl)N=C2N1` [anagrelide, 6,7-dichloro-1,5-dihydroimidazo-[2,1-b]-quinazolin-2-[3H]-one] as the molecule, how does the decrease in thrombocytes (thrombocytes) read?
**A.** Its decrease in thrombocytes is “approximately 50%”.

**Q.** And the solubility in water [2]?
**A.** Its solubility in water is “difficultly soluble in water”.

**Q.** With “Ethyl-(2-amino-5,6-dichloro-2H-quinazolin-3-yl) acetate hydrochloride hemihydrate” as the molecule, how does the “prodrug converted to anagrelide” value [1, 3] read?
**A.** Its value is 100%.

From patent publication US20060148832A1, “Use of 2-amino-2h-quinazoline derivatives for producing therapeutic agents” (priority 2003, published 2006)
